Test results reported in article PMC11855827, “High-Throughput Screening of Five Compound Libraries for Anthelmintic Activity and Toxicity Leads to the Discovery of Two Flavonoid Compounds” (International Journal of Molecular Sciences, 2025).
Where “and” joins values, the source holds several entries; their conditions need not be identical. Equal entries are not always repeated.

Test system: C. elegans
Conditions: Table S2, C. elegans SS assay, 110 μM, averages of 4 data points

C/C=C(\C)C(=O)O[C@H]1[C@H](O)[C@]2(COC(C)=O)[C@@H](O)C[C@]3(C)C(=CC[C@@H]4[C@@]5(C)CC[C@H](O[C@@H]6O[C@H](C(=O)O)[C@@H](O)[C@H](O)[C@H]6O)[C@@](C)(CO)[C@@H]5CC[C@]43C)[C@@H]2CC1(C)C [Gymnemic acid I]
Percentage of motility inhibition 0 h: 20%
Percentage of motility inhibition 24 h: 0%

CC(C)C1=CC(=O)C(C)(C2C(O)CC3(C)C4CC=C5C(CCC(OC6OC(CO)C(O)C(O)C6OC6OC(C)C(O)C(O)C6O)C5(C)C)C4(C)C(=O)CC23C)O1 (stereo not drawn) [Picfeltarraenin IB]
Percentage of motility inhibition 0 h: 0%
Percentage of motility inhibition 24 h: 34%

Nc1ncnc2c1ncn2[C@H]1C[C@H](O)[C@@H](COP(=O)([O-])OP(=O)([O-])OP(=O)([O-])O)O1.[Na+].[Na+].[Na+]
Percentage of motility inhibition 0 h: 21%
Percentage of motility inhibition 24 h: 0%

CCn1cc(C(=O)O)c(=O)c2cc(F)c(N3CCNCC3)nc21 [Enoxacin (hydrate)]
Percentage of motility inhibition 0 h: 17%
Percentage of motility inhibition 24 h: 0%

C[C@H]1CC[C@@H]2N(C1)C[C@H]1[C@@H]3C[C@H]4[C@@H](CC(=O)[C@H]5C[C@@H](O[C@@H]6O[C@H](CO)[C@@H](O)[C@H](O)[C@H]6O)CC[C@@]54C)[C@@H]3CC[C@@H]1[C@]2(C)O [Edpetiline]
Percentage of motility inhibition 0 h: 11%
Percentage of motility inhibition 24 h: 56%

COc1cc2c(=O)c(-c3ccc(O)cc3)coc2cc1O[C@@H]1O[C@H](CO)[C@@H](O)[C@H](O)[C@H]1O [Glycitin]
Percentage of motility inhibition 0 h: 30%
Percentage of motility inhibition 24 h: 4%

O=c1c(O[C@@H]2O[C@H](CO)[C@@H](O)[C@H](O)[C@H]2O[C@@H]2O[C@H](CO)[C@@H](O)[C@H](O)[C@H]2O)c(-c2ccc(O)c(O)c2)oc2cc(O)cc(O)c12 [Baimaside]
Percentage of motility inhibition 0 h: 13%
Percentage of motility inhibition 24 h: 0%

C[C@@H]1CC[C@@H]2O[C@@]23C(=O)C(=O)[C@@H]2[C@@H](C2(C)C)[C@@]13C [Kanshone C]
Percentage of motility inhibition 0 h: 17%
Percentage of motility inhibition 24 h: 22%

CN[C@@H]1[C@H](O)[C@H](NC)[C@H]2O[C@@]3(O)C(=O)C[C@@H](C)O[C@H]3O[C@@H]2[C@H]1O.Cl.Cl.O.O.O.O.O
Percentage of motility inhibition 0 h: 16%
Percentage of motility inhibition 24 h: 2%

C/C(=C\CNc1ncnc2c1ncn2[C@@H]1O[C@H](CO)[C@@H](O)[C@H]1O)CO [trans‐Zeatinriboside]
Percentage of motility inhibition 0 h: 9%
Percentage of motility inhibition 24 h: 0%

Cc1cc(NS(=O)(=O)c2ccc(N)cc2)nc(C)n1 [Sulfisomidin]
Percentage of motility inhibition 0 h: 26%
Percentage of motility inhibition 24 h: 10%

CC(C)(C)NC(=O)[C@@H]1C[C@@H]2CCCC[C@@H]2CN1C[C@@H](O)[C@H](Cc1ccccc1)NC(=O)[C@H](CC(N)=O)NC(=O)c1ccc2ccccc2n1.CS(=O)(=O)O [Saquinavir (Mesylate)]
Percentage of motility inhibition 0 h: 0%
Percentage of motility inhibition 24 h: 10%

O=c1cc(-c2ccc(O)c(O)c2)oc2cc(O)cc(O[C@@H]3O[C@H](CO)[C@@H](O)[C@H](O)[C@H]3O)c12 [Luteolin 5‐O‐glucoside]
Percentage of motility inhibition 0 h: 8%
Percentage of motility inhibition 24 h: 0%

CC1(C)CCC[C@]2(C)[C@@H]1CC[C@@]13C[C@H](CC[C@H]12)[C@@](O)(CO)C3 [Kauran-16,17-diol]
Percentage of motility inhibition 0 h: 0%
Percentage of motility inhibition 24 h: 22%

COc1cccc2c1C(=O)c1c(O)c3c(c(O)c1C2=O)C[C@@](O)(C(=O)CO)C[C@@H]3O[C@H]1C[C@H](N)[C@H](O)[C@H](C)O1.Cl [Doxorubicin (hydrochloride)]
Percentage of motility inhibition 0 h: 13%
Percentage of motility inhibition 24 h: 4%

COc1ccc2cc3[n+](cc2c1OC)CCc1cc(O)c(O)cc1-3.[Cl-] [Demethyleneberberine (chloride)]
Percentage of motility inhibition 0 h: 0%
Percentage of motility inhibition 24 h: 13%

CC(C)=CCC[C@](C)(O)[C@H]1CC[C@]2(C)[C@@H]1[C@H](O)C[C@@H]1[C@@]3(C)CC[C@H](O)C(C)(C)[C@@H]3CC[C@]12C [(20S)-Protopanaxadiol]
Percentage of motility inhibition 0 h: 21%
Percentage of motility inhibition 24 h: 10%

(-)-Huperzine A
Percentage of motility inhibition 24 h: 7% and 15%

COc1ccc(/C=C/C(=O)c2c(O)cc(OC)cc2OC)cc1 [(E)‐Flavokawain A]
Percentage of motility inhibition 0 h: 33%
Percentage of motility inhibition 24 h: 11%

Cc1ccc(CCCO)c(NCc2ccc3nc(NCCCN4CCOCC4)n(Cc4nc(C)ccc4O)c3c2)c1 [TMC353121]
Percentage of motility inhibition 0 h: 25%
Percentage of motility inhibition 24 h: 4%

COc1ccc(-c2oc3c(OC)c(OC)c(OC)c(OC)c3c(=O)c2OC)cc1OC [3,5,6,7,8,3',4'‐Heptemthoxyflavone]
Percentage of motility inhibition 0 h: 34%
Percentage of motility inhibition 24 h: 6%

COc1ccc(-c2oc3c4c(cc(O)c3c(=O)c2O)OC(C)(C)CC4)cc1 [β‐Anhydroicaritin]
Percentage of motility inhibition 0 h: 5%
Percentage of motility inhibition 24 h: 16%

C=C(C(=O)OC1C[C@@H]2[C@H]3O[C@H]3[C@H](C1)N2C)c1ccccc1 (stereo partly drawn) [Aposcopolamine]
Percentage of motility inhibition 0 h: 14%
Percentage of motility inhibition 24 h: 10%

CN(C)CCn1nnnc1SCC1=C(C(=O)O)N2C(=O)[C@@H](NC(=O)Cc3csc(N)n3)[C@H]2SC1.Cl.Cl [Cefotiam (hydrochloride)]
Percentage of motility inhibition 0 h: 66%
Percentage of motility inhibition 24 h: 37%

Nc1ccc(S(=O)(=O)[N-]c2nccs2)cc1.[Na+] [Sulfathiazole (sodium)]
Percentage of motility inhibition 0 h: 15%
Percentage of motility inhibition 24 h: 6%

COc1cc(/C=C/C(=O)NCCc2ccc(O)cc2)ccc1O [N‐trans‐Feruloyltyramine]
Percentage of motility inhibition 0 h: 5%
Percentage of motility inhibition 24 h: 16%

Cn1cnc2c(ncn2[C@@H]2O[C@H](CO)[C@@H](O)[C@H]2O)c1=N [1‐Methyladenosine]
Percentage of motility inhibition 0 h: 7%
Percentage of motility inhibition 24 h: 0%

CC(C)(O)[C@@H]1CC[C@](C)([C@H]2[C@@H](O)C[C@@]3(C)[C@@H]4C[C@H](O)[C@H]5C(C)(C)[C@@H](O)CC[C@]5(C)C4=CC[C@]23C)O1 [Astragenol]
Percentage of motility inhibition 0 h: 50%
Percentage of motility inhibition 24 h: 50%

C/C=C1\C[C@@H](C)[C@](O)(CO)C(=O)OCC2=CC[N+]3([O-])CC[C@@H](OC1=O)[C@@H]23 (stereo partly drawn) [Usaramine N‐oxide]
Percentage of motility inhibition 0 h: 22% and 12%

O=c1c(-c2ccc(O)cc2)coc2cc(O[C@@H]3O[C@H](CO)[C@@H](O)[C@H](O)[C@H]3O)ccc12 [Daidzin]
Percentage of motility inhibition 0 h: 47% and 26%

C=C1C(=O)O[C@@H]2CC(C)=C([C@@H](C)CCCOC(C)=O)[C@@H](O)[C@H]12 [Inulicin]
Percentage of motility inhibition 0 h: 0%
Percentage of motility inhibition 24 h: 16%

NC(N)=NCCCC(N)C(=O)O (racemic) [DL-Arginine]
Percentage of motility inhibition 0 h: 4%
Percentage of motility inhibition 24 h: 0%

Nc1ncnc2c1ncn2[C@@H]1O[C@H](COP(=O)(O)O)[C@@H](O)[C@H]1O.O [Adenosine 5'-monophosphate (monohydrate)]
Percentage of motility inhibition 0 h: 20%
Percentage of motility inhibition 24 h: 2%

Tannic acid
Percentage of motility inhibition 0 h: 3%
Percentage of motility inhibition 24 h: 15%

C[C@@H]1O[C@@H](O[C@H]2[C@H](O[C@H]3CC[C@@]4(C)[C@@H](CC[C@]5(C)[C@@H]4CC=C4[C@@H]6CC(C)(C)CC[C@]6(C(=O)O[C@@H]6O[C@H](CO[C@@H]7O[C@H](CO)[C@@H](O[C@@H]8O[C@@H](C)[C@H](O)[C@@H](O)[C@H]8O)[C@H](O)[C@H]7O)[C@@H](O)[C@H](O)[C@H]6O)CC[C@]45C)[C@]3(C)CO)OC[C@H](O)[C@@H]2O)[C@H](O)[C@H](O)[C@H]1O [Hederacoside C]
Percentage of motility inhibition 0 h: 18%
Percentage of motility inhibition 24 h: 0%

C[C@@]12CCc3occc3[C@H]1CC[C@@]13C[C@@H](CC[C@H]12)[C@@](O)(CO)C3 [Cafestol]
Percentage of motility inhibition 0 h: 0%
Percentage of motility inhibition 24 h: 28%

Cc1nc(C)c(C)nc1C.Cl [Ligustrazine (hydrochloride)]
Percentage of motility inhibition 0 h: 0%
Percentage of motility inhibition 24 h: 17%

C=C(C)[C@@H]1CC[C@]2(C)[C@H](CC=C3[C@@H]4[C@@H](C)[C@H](C)CC[C@]4(C)CC[C@]32C)[C@@]1(C)CCC(=O)O [Roburic acid]
Percentage of motility inhibition 0 h: 11%
Percentage of motility inhibition 24 h: 15%

CS(=O)(=O)O.Cc1c(O)cccc1C(=O)N[C@@H](CSc1ccccc1)[C@H](O)CN1C[C@H]2CCCC[C@H]2C[C@H]1C(=O)NC(C)(C)C [Nelfinavir (Mesylate)]
Percentage of motility inhibition 0 h: 47%
Percentage of motility inhibition 24 h: 5%

O=C(O)[C@H]1O[C@@H](O[C@H]2[C@H](Oc3cc(O)c4c(=O)cc(-c5ccc(O)c(O)c5)oc4c3)O[C@H](C(=O)O)[C@@H](O)[C@@H]2O)[C@H](O)[C@@H](O)[C@@H]1O [Luteolin 7‐diglucuronide]
Percentage of motility inhibition 0 h: 20%
Percentage of motility inhibition 24 h: 7%

CC/C=C\C/C=C\C/C=C\CCCCCCCC(=O)NCc1ccccc1 [N‐Benzyllinolenamide]
Percentage of motility inhibition 0 h: 2%
Percentage of motility inhibition 24 h: 0%

CC(=O)O[C@H]1CC/C(C)=C/CC/C(C)=C/C[C@]2(C(C)C)CC[C@@]1(C)O2 [Incensole Acetate]
Percentage of motility inhibition 0 h: 9%
Percentage of motility inhibition 24 h: 17%

Tarasaponin VI
Percentage of motility inhibition 0 h: 0%
Percentage of motility inhibition 24 h: 0%

COC(=O)N[C@H](C(=O)N1CC2(CC2)C[C@H]1c1ncc(-c2ccc3c(c2)C(F)(F)c2cc(-c4ccc5nc([C@@H]6[C@H]7CC[C@H](C7)N6C(=O)[C@@H](NC(=O)OC)C(C)C)[nH]c5c4)ccc2-3)[nH]1)C(C)C.O=C(O)C(O)C(O)C(=O)O [Ledipasvir (D‐tartrate)]
Percentage of motility inhibition 0 h: 34%
Percentage of motility inhibition 24 h: 13%

C[C@@H]1O[C@@H](OC[C@H]2O[C@@H](Oc3cc(O)c4c(=O)cc(-c5ccc(O)cc5)oc4c3)[C@H](O[C@@H]3O[C@@H](C)[C@H](O)[C@@H](O)[C@H]3O)[C@@H](O)[C@@H]2O)[C@H](O)[C@H](O)[C@H]1O [Ligustroflavone]
Percentage of motility inhibition 0 h: 10%
Percentage of motility inhibition 24 h: 8%
